Consider 10 molecules from patent EP4782450A1, “NOVEL SKELETAL DERIVATIVE EFFECTIVE FOR HER2 MUTATION, AND PHARMACEUTICAL COMPOSITION COMPRISING SAME” (Hanmi Pharm. Co., Ltd., priority 2023, dated 2025).

One assay deals with Ba/F3 HER2 A775insYVMA. As to the kind of experiment: Growth inhibition of Ba/F3 cells engineered to overexpress HER2 A775_G776insYVMA (CellTiter-Glo luminescence). The conditions noted are these: Mus musculus, BaF3, 72 hours, concentrations 1000 to 0.32 nM, read-out: Ba/F3 HER2^YVMA GI50 class. It counts as cell-based. On the procedure: (§1) Experimental Example: Growth inhibition of Ba/F3 HER2 A775insYVMA and wild-type Ba/F3 cells
(§2) In this Experimental Example, the compounds obtained in Examples 1 to 92 were evaluated for their ability to inhibit growth of cells harboring either the HER2 A775insYVMA mutation or wild-type EGFR. For this purpose, Ba/F3 cells (ATCC, USA) were genetically engineered to overexpress either HER2 A775_G776insYVMA or wild-type EGFR, and the growth of these engineered Ba/F3 cells were monitored in the presence of the compounds described in the Examples to evaluate their effects on growth inhibition.
(§3) Specifically, culture flasks of the engineered Ba/F3 cells suspended in RPMI 1640 medium supplemented with 10% fetal bovine serum (FBS) and 1% penicillin/streptomycin (Gibco BRL, USA) were placed in a cell incubator and incubated at 37°C and 5% CO2 level to allow them to reach a stable logarithmic growth phase. The cells were then harvested by centrifugation to remove the old media and placed into a 96-well plate by dividing them into 100 µL aliquots per well at a dilution of 1×10^5 cells/mL in fresh media. Each of the compounds prepared in the preceding Examples were dissolved in 99.5% (cell culture grade) dimethylsulfoxide (DMSO) to prepare a stock solution of 10 mM concentration, which were serially diluted in the culture medium to final concentrations of 1000, 200, 40, 8, 1.6 and 0.32 nM for HER2 A775insYVMA Ba/F3 cells and concentrations of 10000, 5000, 1000, 200, 40 and 8 nM for wild-type EGFR overexpressing Ba/F3 cells.
(§4) To each aliquot of cells in the 96-well plate, a 50 µL test solution comprising one of the compounds was added to result in each well a 150 µL volume of cells with a compound in a final concentration ranging from 10 µM to 0.32 nM. The Ba/F3 cells treated with the test solution were incubated for 72 hours at 37°C and 5% CO2 level and underwent a 30-minute acclimation by placing the 96-well plate carrying the cells in ambient temperature. Thereafter, to each well was added 50 µL CellTiter-Glo® Luminescent Cell Assay Reagent (CTG, Promega, USA). After allowing 10 minutes to stabilize the signal, luminescence intensity was measured using a microplate reader. The half-maximal growth inhibition concentration (GI50) was calculated from the luminescence readout of the test compounds with the difference between the initial and final cell densities for the well untreated with a compound set at 100% growth. Nonlinear regression analysis based on log[inhibitor] vs. normalized response mode of the Graph Prism software was used for calculating GI50 for each compound, which are summarized in Table 6. The calculated GI50 values are classified in Table 6 into four categories: A for GI50 values less than 100 nM, B for GI50 values more than 100 nM but less than 1,000 nM, C for GI50 values more than 1,000 nM but less than 5,000 nM, and D for GI50 values of more than 5,000 nM.

For assay [1], the system named is wild-type EGFR overexpressing Ba/F3 cells. The assay can be described thus: Growth inhibition of Ba/F3 cells engineered to overexpress wild-type EGFR (CellTiter-Glo luminescence). The format is cell-based. The conditions noted are these: Mus musculus, BaF3, 72 hours, concentrations 10000 to 8 nM, read-out: Ba/F3 EGFR^WT GI50 class. On the procedure:
as §1, §2, §3, §4

A value given as a limit tells only on which side of the number the result lay.

Consider `C=CC(=O)NC/C=C/c1ccc2ncnc(Nc3ccc(Oc4ccn5ccnc5c4)c(C)c3)c2n1` [Example 39, (E)-N-(3-(4-((4-(imidazo[1,2-a]pyridin-7-yloxy)-3-methylphenyl)amino)pyrido[3,2-d]pyrimidin-6-yl)allyl)acrylamide], for which the GI50 was under 100 nM in the assay on Ba/F3 HER2 A775insYVMA and 100 to 1000 nM in assay [1].

Consider `C=CC(=O)N(C)CCNc1ccc2ncnc(Nc3ccc(Oc4ccc5c(c4)ncn5C)c(C)c3)c2n1` [Example 15, N-methyl-N-(2-((4-((3-methyl-4-((1-methyl-1H-benzo[d]imidazol-5-yl)oxy)phenyl)amino)pyrido[3,2-d]pyrimidin-6-yl)amino)ethyl)acrylamide], for which the GI50 in the assay on Ba/F3 HER2 A775insYVMA is under 100 nM; in assay [1], 1000 to 5000 nM.

`C=CC(=O)N1CCCC[C@@H]1C#Cc1ccc2ncnc(Nc3ccc(Oc4ccc5c(c4)ncn5C)c(C)c3)c2n1` [Example 88, (R)-1-(2-((4-((3-methyl-4-((1-methyl-1H-benzo[d]imidazol-5-yl)oxy)phenyl)amino)pyrido[3,2-d]pyrimidin-6-yl)ethynyl)piperidin-1-yl)prop-2-en-1-one]: the figures for the GI50 (in the assay with Ba/F3 HER2 A775insYVMA; in assay [1]) were under 100 nM and 1000 to 5000 nM, respectively.

For `C=CC(=O)N(CC)C/C=C/c1ccc2ncnc(Nc3ccc(Oc4ccc5c(c4)ncn5C)c(C)c3)c2n1` [Example 49, (E)-N-ethyl-N-(3-(4-((3-methyl-4-((1-methyl-1H-benzo[d]imidazol-5-yl)oxy)phenyl)amino)pyrido[3,2-d]pyrimidin-6-yl)allyl)acrylamide], the results for the GI50 (with Ba/F3 HER2 A775insYVMA; in assay [1]) were under 100 nM and over 5000 nM, respectively.

`C=CC(=O)N1CCC[C@H]1C#Cc1ncc2ncnc(Nc3ccc(Oc4ccn5ncnc5c4)c(C)c3)c2n1` [Example 84, (S)-1-(2-((8-((4-([1,2,4]triazolo[1,5-a]pyridin-7-yloxy)-3-methylphenyl)amino)pyrimido[5,4-d]pyrimidin-2-yl)ethynyl)pyrrolidin-1-yl)prop-2-en-1-one]: the GI50 in the assay with Ba/F3 HER2 A775insYVMA was under 100 nM; in assay [1], 100 to 1000 nM.

Regarding `Cc1cc(Nc2ncnc3ccc(/C=C/CNC(=O)/C=C/CN4CCOCC4)nc23)ccc1Oc1ccc2c(c1)ncn2C` [Example 60, (E)-N-((E)-3-(4-((3-methyl-4-((1-methyl-1H-benzo[d]imidazol-5-yl)oxy)phenyl)amino)pyrido[3,2-d]pyrimidin-6-yl)allyl)-4-morpholinobut-2-enamide], the GI50 with Ba/F3 HER2 A775insYVMA was under 100 nM; in assay [1], over 5000 nM.

For the molecule `C=CC(=O)N1CC(/C=C/c2ccc3ncnc(Nc4ccc(Oc5ccc6c(c5)ncn6C)c(C)c4)c3n2)C1` [Example 28, (E)-1-(3-(2-(4-((3-methyl-4-((1-methyl-1H-benzo[d]imidazol-5-yl)oxy)phenyl)amino)pyrido[3,2-d]pyrimidin-6-yl)vinyl)azetidin-1-yl)prop-2-en-1-one], the GI50 with Ba/F3 HER2 A775insYVMA was under 100 nM; in assay [1], 1000 to 5000 nM.

As to `C=CC(=O)N(C)C/C=C/c1ccc2ncnc(Nc3ccc(Oc4ccc5c(c4)ncn5C)c(C)c3F)c2n1` [Example 42, (E)-N-(3-(4-((2-fluoro-3-methyl-4-((1-methyl-1H-benzo[d]imidazol-5-yl)oxy)phenyl)amino)pyrido[3,2-d]pyrimidin-6-yl)allyl)-N-methylacrylamide], the GI50 is under 100 nM in the assay on Ba/F3 HER2 A775insYVMA and 1000 to 5000 nM in assay [1].

`C=CC(=O)NCCOc1ccc2ncnc(Nc3ccc(Oc4ccc5c(c4)ncn5C)c(C)c3)c2n1` [Example 7, N-(2-((4-((3-methyl-4-((1-methyl-1H-benzo[d]imidazol-5-yl)oxy)phenyl)amino)pyrido[3,2-d]pyrimidin-6-yl)oxy)ethyl)acrylamide]: the GI50 in the assay on Ba/F3 HER2 A775insYVMA is 100 to 1000 nM; in assay [1] it was over 5000 nM.

For the molecule `C=CC(=O)N(C)C/C=C/c1ncc2ncnc(Nc3ccc(Oc4ccc5c(c4)ncn5C)c(C)c3)c2n1` [Example 24, (E)-N-methyl-N-(3-(8-((3-methyl-4-((1-methyl-1H-benzo[d]imidazol-5-yl)oxy)phenyl)amino)pyrimido[5,4-d]pyrimidin-2-yl)allyl)acrylamide], the GI50 in the assay on Ba/F3 HER2 A775insYVMA was under 100 nM; in assay [1], 1000 to 5000 nM.
